# Reference: patent US20100120843A1, “PHARMACEUTICAL COMPOSITION FOR TREATING ALCOHOL-INDUCED LIVER INJURY COMPRISING (4S,5S)-5-FLUOROMETHYL-5-HYDROXY-4-(AMINO)-DIHYDROFURAN-2-ONE OR PHARMACEUTICALLY ACCEPTABLE SALT THEREOF” (LG Life Sciences Ltd., priority 2008, published 2010)
# Experiments:
# apoptosis of liver cell = assay: TUNEL staining of liver tissue (apoptosis of liver cell); format: in vivo, rat
# Description: (§1) Male Sprague-Dawley rats (5 weeks of age, 170 g of body weight) were divided into four experimental groups: control diet group, control diet with CF1 group, ethanol (EtOH) diet group and EtOH diet with CF1 group. Control diet group, control diet with CF1 group, EtOH diet group, and EtOH diet with CF1 group were fed, respectively, with Lieber-Decarli control diet, Lieber-Decarli control diet and CF1, Lieber-Decarli liquid diet containing 6% ethanol, and Lieber-Decarli liquid diet containing 6% ethanol and CF1 for 12 weeks. CF1 was dissolved in PEG (polyethylene glycol) 400 and 5% ethanol solution (PEG 400:ethanol=2:1), and administered daily at 10 mg/kg by oral gavage. About 8 hours prior to rats' sacrifice, lipopolysaccharide (LPS) was intraperitoneally injected to increase the liver injury in the amount of 1 mg/kg.
# To investigate apoptosis of liver cell according to alcohol ingestion, TUNEL staining was processed. TUNEL staining was carried out using in situ Cell Death Detection Kit (Roche Diagnostics, Germany) according to the manufacturer's instructions.
# Stained tissue was photographed at 100 times magnification (FIG. 5). TUNEL positive cells per field were calculated.
# caspase-8 = molecular target: T1, caspase-8 (Rattus norvegicus, UniProt Q9JHX4); assay: Fluorometric assay of caspase-8 activity in cellular extraction of liver tissue; format: in vivo; settings: EtOH diet with CF1 10 mg/kg oral daily, 12 weeks, LPS 1 mg/kg i.p. 8 h before sacrifice; FIG. 2
# T1 construct: the activities of caspase-3 and caspase-8 were assayed in cellular extraction of liver tissue; from tissue; host or cells: liver of Sprague-Dawley rats dosed orally with CF1
# T1 sequence (Q9JHX4 219-378 limits assumed): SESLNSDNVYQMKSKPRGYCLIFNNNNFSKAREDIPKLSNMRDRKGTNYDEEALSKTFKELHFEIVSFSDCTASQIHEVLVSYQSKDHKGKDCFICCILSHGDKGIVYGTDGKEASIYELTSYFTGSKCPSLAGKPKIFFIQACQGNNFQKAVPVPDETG
# T1 sequence (Q9JHX4 389-482 limits assumed): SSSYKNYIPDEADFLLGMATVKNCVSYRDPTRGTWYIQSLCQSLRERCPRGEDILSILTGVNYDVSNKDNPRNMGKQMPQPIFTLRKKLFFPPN
# Description: as §1
# (§2) To investigate the role of caspase in alcohol-induced liver injury, the activities of caspase-3 and caspase-8 were assayed in cellular extraction of liver tissue. The activities of caspase-3 and caspase-8 were assayed by using EnzChek™ Caspase Assay Kit molecular Probes, USA) according to the manufacturer's instructions.
# liver = assay: Histological assessment of liver (H&E and Masson's trichrome); format: in vivo, rat
# Description: as §1
# The extracted livers were fixed by 10% neutral formalin in PBS (phosphate buffered saline). Then, a paraffin section of 4 μm thickness was prepared, and stained with H&E (Hematoxylin & Eosin) and Masson's trichrome. The stained tissue was photographed at 100 times magnification (FIGS. 4A and 4B).
# caspase-3 = molecular target: T2, caspase-3 (Rattus norvegicus, UniProt P55213); assay: Fluorometric assay of caspase-3 activity in cellular extraction of liver tissue; format: in vivo; settings: EtOH diet with CF1 10 mg/kg oral daily, 12 weeks, LPS 1 mg/kg i.p. 8 h before sacrifice; FIG. 1
# T2 construct: the activities of caspase-3 and caspase-8 were assayed in cellular extraction of liver tissue; from tissue; host or cells: liver of Sprague-Dawley rats dosed orally with CF1
# T2 sequence (P55213 29-175 limits assumed): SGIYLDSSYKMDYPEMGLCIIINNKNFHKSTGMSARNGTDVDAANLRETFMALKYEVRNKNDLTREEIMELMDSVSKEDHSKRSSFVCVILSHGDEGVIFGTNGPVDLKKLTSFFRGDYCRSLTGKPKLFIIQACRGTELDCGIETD
# T2 sequence (P55213 176-277 limits assumed): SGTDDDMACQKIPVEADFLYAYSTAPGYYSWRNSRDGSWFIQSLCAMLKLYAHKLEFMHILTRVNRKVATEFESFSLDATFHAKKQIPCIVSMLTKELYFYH
# Description: as §1, §2
# [1] = Determination of serum liver enzymes (AST, ALT) in association with liver injury; format: in vivo, rat; settings: 12 weeks
# Description: as §1
# Liver injury was assessed by a biochemical assay of liver enzyme. After the 12 weeks' experiment, the blood samples were obtained from all rats' heart. Serum aspartate transaminase (AST) and alanine transaminase (ALT) values were analyzed for 100 μl of plasma from each blood sample with Hitachi 7050 automatic analyzer (Hitachi, Japan).
smiles,measurement,setting,value
"CC(C)[C@@]1(C(=O)N[C@H]2CC(=O)O[C@]2(O)CF)CC(c2nccc3ccccc23)=NO1 [CF1, (4S,5S)-5-fluoromethyl-5-hydroxy-4-({[(5R)-5-isopropyl-3-(isoquinolin-1-yl)-4,5-dihydro-5-isoxazolyl]carbonyl}amino)-dihydrofuran-2-one]",TUNEL positive cells per field,"apoptosis of liver cell; Alcohol diet with CF1 10 mg/kg oral daily, 12 weeks, alcohol diet group 25.14±9.14, control diet group 10.3±1.9",6.4±1.1 TUNEL positive cells/field
same,TUNEL positive cells,"apoptosis of liver cell; Control diet with CF1 group, FIGS. 5 and 6",rarely observed
same,caspase-8 activity in liver tissue,caspase-8,decreased to the level of control group
same,Hepatic fibrosis (Masson's trichrome),"liver; Alcohol diet with CF1 compared with control diet groups, no statistical significance, FIG. 4B",some progression of hepatic fibrosis
same,Fatty liver (H&E staining),"liver; Alcohol diet with CF1 vs alcohol diet group, FIG. 4A",inhibited the increase of fatty liver
same,caspase-3 activity in liver tissue,caspase-3,decreased to the level of control group
same,Serum alanine transaminase (ALT),"[1]; Alcohol diet with CF1 10 mg/kg oral daily, alcohol diet group 336±163 IU/L",120±10 IU/L
same,Serum aspartate transaminase (AST),"[1]; Alcohol diet with CF1 10 mg/kg oral daily, alcohol diet group 454±175 IU/L",194±22 IU/L
same,Serum AST and ALT values compared with control diet group,"[1]; Control diet with CF1 10 mg/kg oral daily, FIG. 3",did not show significant change
